Experimental data as given in patent US20170008888A1 (KYORIN PHARMACEUTICAL CO., LTD., priority 2014, published 2017).
Where two headings read alike, the source gives them in different places.

How the values were obtained:
[1] = target: T1, ERK5 (Homo sapiens, UniProt Q13164); test: Probe-based (AX9989 acyl phosphate ATP probe) kinase profiling in Jurkat lysate: ERK5; type: binding; settings: for IC50: Jurkat lysate; for inhibition at 10 µM: screening concentration 10 μM; for inhibition at 0.1 µM: screening concentration 0.1 μM
T1 construct: screened for activity against several kinases in Jurkat cells; endogenous in cells; host or cells: Jurkat cell lysate
How it was run: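 ERK5 IC50 values came from percent inhibition at the screening concentration, measured as loss of LC/MS signal of probe-labelled active-site peptides. Compound was added for 15 min at room temperature to Jurkat lysate (5 mg/ml, 20 mM MnCl2) before labelling with AX9989 ATP acyl phosphate probe at 5 μM.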

[2] = target: T2, TAO2 (Homo sapiens, UniProt Q9UL54); test: Probe-based (AX9989) kinase profiling in Jurkat lysate: TAO2; type: binding; settings: for inhibition at 10 µM: screening concentration 10 μM; for inhibition at 0.1 µM: screening concentration 0.1 μM
T2 construct: screened for activity against several kinases in Jurkat cells; endogenous in cells; host or cells: Jurkat cell lysate
T2 sequence (Q9UL54 1-1235): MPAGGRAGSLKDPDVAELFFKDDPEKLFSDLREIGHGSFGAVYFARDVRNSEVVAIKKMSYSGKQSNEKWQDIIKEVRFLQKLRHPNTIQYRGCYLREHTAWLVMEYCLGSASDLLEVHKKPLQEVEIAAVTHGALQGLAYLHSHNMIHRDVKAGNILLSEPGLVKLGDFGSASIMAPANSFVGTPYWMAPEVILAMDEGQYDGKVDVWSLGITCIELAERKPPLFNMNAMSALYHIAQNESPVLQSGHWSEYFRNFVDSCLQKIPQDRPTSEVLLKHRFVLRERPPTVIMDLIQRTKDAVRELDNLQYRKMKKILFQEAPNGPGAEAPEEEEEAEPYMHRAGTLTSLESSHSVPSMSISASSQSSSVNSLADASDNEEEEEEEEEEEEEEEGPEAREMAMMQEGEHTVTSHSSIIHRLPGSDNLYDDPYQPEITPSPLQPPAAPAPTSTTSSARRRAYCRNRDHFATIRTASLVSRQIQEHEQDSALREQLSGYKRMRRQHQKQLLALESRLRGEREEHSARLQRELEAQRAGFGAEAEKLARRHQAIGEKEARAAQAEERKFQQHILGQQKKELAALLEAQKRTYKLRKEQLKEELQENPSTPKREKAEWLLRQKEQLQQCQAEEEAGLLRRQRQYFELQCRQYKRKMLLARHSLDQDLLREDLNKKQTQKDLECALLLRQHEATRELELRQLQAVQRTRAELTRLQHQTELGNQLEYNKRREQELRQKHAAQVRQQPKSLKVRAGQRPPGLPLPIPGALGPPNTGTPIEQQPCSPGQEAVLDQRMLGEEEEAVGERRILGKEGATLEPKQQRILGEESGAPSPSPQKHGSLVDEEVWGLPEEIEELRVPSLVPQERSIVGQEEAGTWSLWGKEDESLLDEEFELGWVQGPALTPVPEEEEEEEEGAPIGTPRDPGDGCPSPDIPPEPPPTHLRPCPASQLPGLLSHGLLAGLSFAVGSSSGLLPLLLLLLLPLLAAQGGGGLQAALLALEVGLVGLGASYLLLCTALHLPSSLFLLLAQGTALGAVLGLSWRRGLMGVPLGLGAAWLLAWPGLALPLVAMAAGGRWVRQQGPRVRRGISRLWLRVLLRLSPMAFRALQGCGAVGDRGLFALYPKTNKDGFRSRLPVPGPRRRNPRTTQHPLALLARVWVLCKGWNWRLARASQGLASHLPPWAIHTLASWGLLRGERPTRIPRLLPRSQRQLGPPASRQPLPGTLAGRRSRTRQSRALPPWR
How it was run: (§1)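 Read-out: LC/MS intensity of desthiobiotinylated kinase active-site peptides, percent inhibition normalized to no-compound lysate. Jurkat lysate with 20 mM MnCl2 received compound for 15 min at room temperature, then 5 μM AX9989 probe; duplicates.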

[3] = target: T3, ACK (Homo sapiens, UniProt Q07912); test: Probe-based (AX9989) kinase profiling in Jurkat lysate: ACK; type: binding; settings: for inhibition at 10 µM: screening concentration 10 μM; for inhibition at 0.1 µM: screening concentration 0.1 μM
T3 construct: screened for activity against several kinases in Jurkat cells; endogenous in cells; host or cells: Jurkat cell lysate
How it was run: as §1

[4] = test system: ABL or ARG; test: Probe-based (AX9989) kinase profiling in Jurkat lysate: ABL or ARG; type: binding
How it was run: as §1

[5] = test system: human PBMCs; test: Human PBMC TNF-α response to endotoxin (ELISA); type: cell-based; settings: 0.1 μg/ml LPS 16 h, read-out: EC50 for the inhibition of the human PBMC TNF-α response to endotoxin, ave. ± S.D.
How it was run: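 PBMCs at 2e6 cells/ml in RPMI 1640 with 10% charcoal-dextran-treated FBS were pre-treated 1 h at 37 °C with compound (4-point 1:5 dilution from 10 μM). Stimulation with 0.1 μg/ml E. coli 0111:B4 LPS for 16 h; TNF-α measured by ELISA (A450) in 25-fold diluted supernatant.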

[6] = calculated from percent inhibition of AX9989 labeling and the screening concentration
[7] = screening concentration 1.0 μM, read-out: Kinase inhibition % at indicated screening concentration: ERK5
[8] = screening concentration 1.0 μM, read-out: Kinase inhibition % at indicated screening concentration: TAO2
[9] = screening concentration 1.0 μM, read-out: Kinase inhibition % at indicated screening concentration: ACK
[10] = calculated from percent inhibition and screening concentration, AX9989 probe
[11] = read-out: ERK5 Inhibition % at indicated screening concentration
[12] = read-out: TAO2 Inhibition % at indicated screening concentration
[13] = read-out: ACK Inhibition % at indicated screening concentration
[14] = screening concentration 1 μM, read-out: ERK5 Inhibition % at indicated screening concentration
[15] = screening concentration 1 μM, read-out: TAO2 Inhibition % at indicated screening concentration
[16] = screening concentration 1 μM, read-out: ACK Inhibition % at indicated screening concentration
[17] = read-out: Kinase inhibition % at indicated screening concentration: ERK5
[18] = read-out: Kinase inhibition % at indicated screening concentration: TAO2
[19] = read-out: Kinase inhibition % at indicated screening concentration: ACK

T1 sequence (Q13164 whole entry): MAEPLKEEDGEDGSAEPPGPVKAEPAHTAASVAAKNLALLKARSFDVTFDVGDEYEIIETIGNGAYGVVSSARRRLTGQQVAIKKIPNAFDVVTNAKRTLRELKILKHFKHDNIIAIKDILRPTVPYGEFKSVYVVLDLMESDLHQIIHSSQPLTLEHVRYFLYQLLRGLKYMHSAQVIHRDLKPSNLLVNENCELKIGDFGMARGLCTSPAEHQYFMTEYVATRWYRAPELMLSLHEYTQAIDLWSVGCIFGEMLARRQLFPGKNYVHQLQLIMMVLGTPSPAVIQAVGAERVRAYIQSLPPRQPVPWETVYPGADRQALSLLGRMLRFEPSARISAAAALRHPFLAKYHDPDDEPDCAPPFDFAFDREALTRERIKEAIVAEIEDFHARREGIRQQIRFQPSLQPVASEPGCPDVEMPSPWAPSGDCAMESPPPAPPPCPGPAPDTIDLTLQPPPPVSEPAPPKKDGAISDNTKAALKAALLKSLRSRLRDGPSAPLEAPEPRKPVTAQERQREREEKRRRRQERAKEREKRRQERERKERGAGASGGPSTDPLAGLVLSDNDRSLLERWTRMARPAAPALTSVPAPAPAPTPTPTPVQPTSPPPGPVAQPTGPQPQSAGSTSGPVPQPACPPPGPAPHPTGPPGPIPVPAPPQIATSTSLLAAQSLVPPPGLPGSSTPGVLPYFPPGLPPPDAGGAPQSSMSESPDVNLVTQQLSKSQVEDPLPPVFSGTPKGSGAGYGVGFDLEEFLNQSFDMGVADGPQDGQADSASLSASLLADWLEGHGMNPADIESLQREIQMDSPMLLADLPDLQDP
T3 sequence (Q07912 whole entry): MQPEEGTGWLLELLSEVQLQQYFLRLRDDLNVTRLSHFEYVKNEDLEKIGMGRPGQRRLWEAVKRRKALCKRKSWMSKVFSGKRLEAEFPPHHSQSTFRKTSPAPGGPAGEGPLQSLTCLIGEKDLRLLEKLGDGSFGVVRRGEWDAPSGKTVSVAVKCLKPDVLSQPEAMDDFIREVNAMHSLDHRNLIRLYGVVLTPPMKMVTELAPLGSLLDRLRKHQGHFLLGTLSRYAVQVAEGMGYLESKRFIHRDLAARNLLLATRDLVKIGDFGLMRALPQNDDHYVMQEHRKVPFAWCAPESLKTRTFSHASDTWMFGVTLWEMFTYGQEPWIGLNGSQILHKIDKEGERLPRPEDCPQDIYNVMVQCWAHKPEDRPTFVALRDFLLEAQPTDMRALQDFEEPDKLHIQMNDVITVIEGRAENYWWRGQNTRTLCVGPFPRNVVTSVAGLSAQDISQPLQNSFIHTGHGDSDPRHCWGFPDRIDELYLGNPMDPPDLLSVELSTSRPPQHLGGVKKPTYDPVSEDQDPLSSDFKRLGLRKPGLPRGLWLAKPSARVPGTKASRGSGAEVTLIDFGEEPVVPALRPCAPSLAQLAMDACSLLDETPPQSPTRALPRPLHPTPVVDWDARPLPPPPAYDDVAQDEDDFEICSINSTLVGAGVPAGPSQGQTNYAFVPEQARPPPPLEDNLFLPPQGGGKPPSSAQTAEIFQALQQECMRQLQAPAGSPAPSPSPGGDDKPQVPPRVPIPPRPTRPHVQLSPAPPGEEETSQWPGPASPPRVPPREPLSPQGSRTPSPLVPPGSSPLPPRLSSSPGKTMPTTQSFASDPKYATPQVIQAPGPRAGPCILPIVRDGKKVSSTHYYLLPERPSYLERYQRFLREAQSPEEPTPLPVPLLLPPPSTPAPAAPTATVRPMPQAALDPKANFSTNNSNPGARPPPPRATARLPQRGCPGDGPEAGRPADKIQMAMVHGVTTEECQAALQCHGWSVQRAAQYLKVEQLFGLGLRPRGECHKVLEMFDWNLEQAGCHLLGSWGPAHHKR

IC50 [1, 6] [nM]	inhibition at 1 µM [1, 7] [%]	inhibition at 1 µM [2, 8] [%]	inhibition at 1 µM [3, 9] [%]	Kinase inhibition % at indicated screening concentration: ABL or ARG ([4]; screening concentration 1.0 μM)	Structure (SMILES)	EC50 [5] [nM]	further results
50 to 100	> 90	≤ 35	≤ 35	E (E is ≦35%)	CCOc1cc(C(=O)N2CCCC(O)C2)ccc1Nc1cc2c(cn1)N(C)C(=O)c1ccccc1N2C (stereo not drawn) [Compound 93]	760	
					CCOc1cc(C(=O)N2CCC(N3CCN(C)CC3)CC2)ccc1Nc1cc2c(cn1)N(C)C(C(F)(F)F)c1ccccc1N2C (stereo not drawn) [Compound T47]	3970	IC50 [1, 10]: > 500 nM; inhibition at 10 µM [1, 11]: 50 to 75%; inhibition at 10 µM [2, 12]: ≤ 35%; inhibition at 10 µM [3, 13]: ≤ 35%; ABL or ARG Inhibition % at indicated screening concentration ([4]; screening concentration 10 μM): E (E is ≦35%)
					CCOc1cc(C(=O)N2C[C@H]3CCN[C@H]3C2)ccc1Nc1cc2c(cn1)N(C)C(=O)c1ccccc1N2C [Compound T5]	840	IC50 [1, 10]: ≤ 50 nM; inhibition at 1 µM [1, 14]: > 90%; inhibition at 1 µM [2, 15]: ≤ 35%; inhibition at 1 µM [3, 16]: ≤ 35%; ABL or ARG Inhibition % at indicated screening concentration ([4]; screening concentration 1 μM): E (E is ≦35%)
≤ 50	> 90	≤ 35	≤ 35	E (E is ≦35%)	CCOc1cc(C(=O)N2CCN(CC)CC2)ccc1Nc1cc2c(cn1)N(C)C(=O)c1ccccc1N2C [Compound 108]	700	
					CCOc1cc(C(=O)N2CCC(NC(C)C)C2)ccc1Nc1cc2c(cn1)N(C)C(=O)c1ccccc1N2C (stereo not drawn) [Compound T4]	490	IC50 [1, 10]: ≤ 50 nM; inhibition at 1 µM [1, 14]: > 90%; inhibition at 1 µM [2, 15]: ≤ 35%; inhibition at 1 µM [3, 16]: ≤ 35%; ABL or ARG Inhibition % at indicated screening concentration ([4]; screening concentration 1 μM): E (E is ≦35%)
					CC(C)Oc1cc(C(=O)N2CCC[C@H](O)C2)ccc1Nc1cc2c(cn1)N(C)C(=O)c1ccccc1N2C [Compound T48]	740	IC50 [1, 10]: 101 to 500 nM; inhibition at 10 µM [1, 11]: > 90%; inhibition at 10 µM [2, 12]: ≤ 35%; inhibition at 10 µM [3, 13]: ≤ 35%; ABL or ARG Inhibition % at indicated screening concentration ([4]; screening concentration 10 μM): E (E is ≦35%)
50 to 100	> 90	≤ 35	≤ 35	E (E is ≦35%)	CCOc1cc(C(=O)N2CCC(N3CCN(C)CC3)CC2)ccc1Nc1cc2c(cn1)N(C)C(=O)c1ccccc1N2C [Compound 61]	890 ± 290	
50 to 100	> 90	≤ 35	≤ 35	E (E is ≦35%)	CCOc1cc(C(=O)N2CCC(OC)CC2)ccc1Nc1cc2c(cn1)N(C)C(=O)c1ccccc1N2C [Compound 63]	870	
101 to 500	75 to 90	≤ 35	≤ 35	E (E is ≦35%)	CN1C(=O)c2occc2N(C)c2cc(N[C@H]3CC[C@H](N)CC3)ncc21 [Compound 53]	4130	
					CCOc1cc(C(=O)N2CC[C@H](C#N)C2)ccc1Nc1cc2c(cn1)N(C)C(=O)c1ccccc1N2C [Compound T22]	820 ± 140	IC50 [1, 10]: ≤ 50 nM; inhibition at 1 µM [1, 14]: > 90%; inhibition at 1 µM [2, 15]: ≤ 35%; inhibition at 1 µM [3, 16]: ≤ 35%; ABL or ARG Inhibition % at indicated screening concentration ([4]; screening concentration 1 μM): E (E is ≦35%)
50 to 100	> 90	≤ 35	≤ 35	E (E is ≦35%)	CCOc1cc(C(=O)NCCn2ccnc2)ccc1Nc1cc2c(cn1)N(C)C(=O)c1ccccc1N2C [Compound 84]	1180	
101 to 500					CCOc1cc(C(N)=O)ccc1Nc1cc2c(cn1)N(C)C(=O)c1ccccc1N2C [Compound 51]	2040	inhibition at 0.1 µM [1, 17]: 35 to 50%; inhibition at 0.1 µM [2, 18]: ≤ 35%; inhibition at 0.1 µM [3, 19]: ≤ 35%; Kinase inhibition % at indicated screening concentration: ABL or ARG ([4]; screening concentration 0.1 μM): E (E is ≦35%)
≤ 50	> 90	≤ 35	≤ 35	E (E is ≦35%)	CCOc1cc(C(=O)N2CCCNCC2)ccc1Nc1cc2c(cn1)N(C)C(=O)c1ccccc1N2C [Compound 71]	780	
> 500	50 to 75	≤ 35	≤ 35	E (E is ≦35%)	CCOc1cc(C(=O)NCCc2ccncc2)ccc1Nc1cc2c(cn1)N(C)C(=O)c1ccccc1N2C [Compound 107]	1310	
≤ 50	> 90	50 to 75	≤ 35	E (E is ≦35%)	Cc1cc(CN2CCCC2)ccc1Nc1cc2c(cn1)N(C)C(=O)c1ccccc1N2C [Compound 106, 5,11-dimethyl-3-(2-methyl-4-(pyrrolidin-1-ylmethyl)phenylamino)-5H-benzo[e]pyrido[3,4-b][1,4]diazepin-10(11H)-one]	2840	
101 to 500	75 to 90	≤ 35	≤ 35	E (E is ≦35%)	CN1C(=O)c2ccccc2N(C)c2cc(NC3CCOCC3)ncc21 [Compound 102]	2520	
≤ 50	> 90	≤ 35	≤ 35	E (E is ≦35%)	CCOc1cc(C(=O)N(CC)CCN(CC)CC)ccc1Nc1cc2c(cn1)N(C)C(=O)c1ccccc1N2C [Compound 122]	1130 ± 380	
≤ 50					CCOc1cc(C(=O)N(C)CCN(C)C)ccc1Nc1cc2c(cn1)N(C)C(=O)c1ccccc1N2C [Compound 88]	600	inhibition at 0.1 µM [1, 17]: > 90%; inhibition at 0.1 µM [2, 18]: ≤ 35%; inhibition at 0.1 µM [3, 19]: ≤ 35%; Kinase inhibition % at indicated screening concentration: ABL or ARG ([4]; screening concentration 0.1 μM): E (E is ≦35%)
≤ 50					CCOc1cc(C(=O)N2CC(N3CCCCC3)C2)ccc1Nc1cc2c(cn1)N(C)C(=O)c1ccccc1N2C [Compound 114]	530	inhibition at 0.1 µM [1, 17]: > 90%; inhibition at 0.1 µM [2, 18]: ≤ 35%; inhibition at 0.1 µM [3, 19]: ≤ 35%; Kinase inhibition % at indicated screening concentration: ABL or ARG ([4]; screening concentration 0.1 μM): E (E is ≦35%)
